From ChEMBL document CHEMBL1130448, “CETP inhibitory activity of ceramides, isolated from the gorgonian Acabaria Undulata” (Bioorg Med Chem Lett, 1997) come the findings set out here.

In this experiment the target is T1, Cholesteryl ester transfer protein (Homo sapiens, UniProt P11597).
T1 sequence (P11597 whole entry): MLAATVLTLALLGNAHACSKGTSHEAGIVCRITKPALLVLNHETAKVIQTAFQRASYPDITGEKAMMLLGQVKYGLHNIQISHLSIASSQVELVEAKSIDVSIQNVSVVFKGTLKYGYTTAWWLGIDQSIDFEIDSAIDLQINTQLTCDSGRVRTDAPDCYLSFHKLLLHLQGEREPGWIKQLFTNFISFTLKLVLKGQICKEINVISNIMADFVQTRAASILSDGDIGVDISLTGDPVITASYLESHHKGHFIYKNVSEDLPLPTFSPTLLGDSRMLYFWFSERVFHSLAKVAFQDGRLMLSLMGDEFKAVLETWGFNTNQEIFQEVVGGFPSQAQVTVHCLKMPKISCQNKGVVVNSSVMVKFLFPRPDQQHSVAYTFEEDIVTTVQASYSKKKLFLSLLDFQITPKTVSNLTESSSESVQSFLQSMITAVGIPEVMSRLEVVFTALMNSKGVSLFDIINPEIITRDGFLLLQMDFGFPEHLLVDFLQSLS
Put plainly: Compound was measured for its inhibitory activity against cholesteryl ester transfer protein (CETP).

For `CCCCCCCCCCCCC/C=C/C(O)C(N)CO[C@H]1O[C@H](CO)[C@H](O)[C@H](O)[C@H]1O` (stereo not given in full), it took 19.7 µM to reach half-maximal inhibition (IC50).

`CC(C)CNC(=O)/C=C/[C@@H]1C[C@H]1[C@@H]1C[C@H]1[C@@H]1C[C@H]1[C@@H]1C[C@H]1[C@@H]1C[C@H]1/C=C/[C@@H]1C[C@H]1C`: the IC50 (usually the point on the concentration scale where inhibition reaches its midpoint) was 25 µM. The IC50 values of the last two molecules are within 1.5-fold of each other.

Consider `CCCCCCCCCCCCCCCC(=O)N[C@@H](CO)[C@H](O)/C=C/CC/C=C/CCCCCCCC(C)C`, for which the IC50 stood at 86.3 µM.

Regarding `CCCCCCCCCCCCC/C=C/C(O)C(CO)N(C)C` (stereo not given), it took 6.3 µM to reach half-maximal inhibition (IC50). This IC50 is about 14-fold lower than that of the molecule before.

In the case of `CCCCCCCCCCCCC/C=C/[C@@H](O)[C@H](CO)NC(=O)CCCCCCCCCCCCCCC`, half-maximal inhibition (IC50) required 65.6 µM.

For `CCCCCCCCC/C=C/CC/C=C/[C@@H](O)[C@H](CO)NC(=O)CCCCCCCCCCCCCCC`, half-maximal inhibition (IC50) required 46.8 µM.

In turn, `CCCCCCC/C=C/C=C/CC/C=C/[C@@H](O)[C@H](CO)NC(=O)CCCCCCCCCCCCCCC` returned an IC50 of 57.3 µM.

With `CCCCCCCCCCCCCCC[C@@H](O)[C@@H](N)CO` (racemic) [DIHYDROSPINGOSINE], the IC50 is 12.9 µM. Compared with the last molecule, the IC50 is about 4.4-fold lower.

`CCCCCCCCCCCCC/C=C/[C@@H](O)[C@@H](N)CO` [SPHINGOSINE] had an IC50 of 11.5 µM. The IC50 values of the last two molecules are within 1.5-fold of each other.

With `CCCCCCCCCCCCC/C=C/[C@@H](O)[C@@H](N)COP(=O)([O-])OCC[N+](C)(C)C` [SPHINGOSYLPHOSPHORYLCHLOLINE], the IC50 is 157 µM. This IC50 lies about 14-fold higher than the previous one.
